US8013158B2, “Crystalline forms of topotecan hydrochloride and processes for making the same” (Scinopharm Taiwan Ltd., priority 2007, dated 2011)
Entries after “also recorded” stand apart in the source; their conditions may differ.

Tests used:
[1] = Stability of crystalline forms held at room temperature, purity by HPLC; assay type: physicochemical; conditions: for Purity / Stability at room temperature: HPLC; for Stability at room temperature: over twenty days at room temperature
Excerpt: The stabilities of some of the crystalline forms have been tested under various conditions. HPLC was used to determine the degree of degradation of topotecan hydrochloride over time.
The samples with different forms were held at room temperature for a specific period. We tested the purities of these samples by HPLC and observed the changes of their purities.
The changes to the purities of Forms D to I are summarized as follows: […]

[2] = Experiment 2: long-time stirring in ethyl acetate at room temperature, resulting crystalline form; assay type: physicochemical
Protocol: Topotecan hydrochloride (4.0 g Form A or Form D) is stirred in ethyl acetate (40 mL) for a long time (40, 80, or 200 hours) at room temperature. The solids are filtered and washed with cool ethyl acetate. Dry under vacuum at room temperature.

[3] = room temperature, duration 0 hour, hydrochloride
[4] = room temperature, duration 3 days, hydrochloride
[5] = room temperature, duration 32 days, hydrochloride
[6] = room temperature, duration 7 days, hydrochloride
[7] = room temperature, duration 20 days, hydrochloride
[8] = room temperature, duration 36 days, hydrochloride

Compound `CC[C@@]1(O)C(=O)OCc2c1cc1n(c2=O)Cc2cc3c(CN(C)C)c(O)ccc3nc2-1.Cl` [Form F, topotecan hydrochloride] has a Purity [1, 3] of 99.94%, a Purity [1, 4] of 99.92% and a Purity ([1]; room temperature, duration 16 days) of 99.91%. The Purity [1, 5] was 99.91%.
For `CC[C@@]1(O)C(=O)OCc2c1cc1n(c2=O)Cc2cc3c(CN(C)C)c(O)ccc3nc2-1.Cl` [Form A, topotecan monohydrochloride pentahydrate, reference compound], the “Crystalline form after stirring” value ([2]; stirred in ethyl acetate 40 h at room temperature, listed as From A) was “From A → A”, the “Crystalline form after stirring” value ([2]; stirred in ethyl acetate 80 h at room temperature) was “transform to Form E; also recorded: Form A → E” and the “Crystalline form after stirring” value ([2]; stirred in ethyl acetate 200 h at room temperature) was “Form A → E”.
In the case of `CC[C@@]1(O)C(=O)OCc2c1cc1n(c2=O)Cc2cc3c(CN(C)C)c(O)ccc3nc2-1.Cl` [Form D, topotecan hydrochloride], the “Stability on long time stirring compared with Form A” value ([2]; long time stirring in ethyl acetate) is reported as “more stable than Form A”, the “Crystalline form after stirring” value ([2]; stirred in ethyl acetate 40 h at room temperature, hydrochloride) is reported as “Form D → D” and the “Crystalline form after stirring” value ([2]; stirred in ethyl acetate 80 h at room temperature, hydrochloride) is reported as “Form D → D”. The “Crystalline form after stirring” value ([2]; stirred in ethyl acetate 200 h at room temperature, hydrochloride) was “stable; also recorded: Form D → D”, the “Stability at room temperature compared with other Forms” value ([1]; room temperature) was “better than other Forms” and the Purity [1, 3] was 99.32%. The Purity [1, 4] was 99.21%, the Purity [1, 6] was 99.17% and the Purity [1, 7] was 99.08%. The Purity [1, 8] was 99.43%.
With `CC[C@@]1(O)C(=O)OCc2c1cc1n(c2=O)Cc2cc3c(CN(C)C)c(O)ccc3nc2-1.Cl` [Form H, topotecan hydrochloride] the “Stability at room temperature” value [1] was “substantially stable”, the Purity [1, 3] was 99.92% and the Purity [1, 4] was 99.90%. The Purity [1, 6] was 99.92% and the Purity [1, 7] was 99.89%.
Compound `CC[C@@]1(O)C(=O)OCc2c1cc1n(c2=O)Cc2cc3c(CN(C)C)c(O)ccc3nc2-1.Cl` [Form E, topotecan hydrochloride] has a Purity [1, 3] of 98.99%, a Purity [1, 4] of 99.27% and a Purity [1, 6] of 99.31%. For the same compound, the Purity [1, 7] was 99.29% and the Purity [1, 8] was 99.30%.
For `CC[C@@]1(O)C(=O)OCc2c1cc1n(c2=O)Cc2cc3c(CN(C)C)c(O)ccc3nc2-1.Cl` [Form G, topotecan hydrochloride], the Purity [1, 3] was 99.11%, the Purity [1, 4] was 99.06% and the Purity [1, 6] was 99.00%. For the same compound, the Purity [1, 7] was 98.88% and the Purity [1, 5] was 99.06%.
With `CC[C@@]1(O)C(=O)OCc2c1cc1n(c2=O)Cc2cc3c(CN(C)C)c(O)ccc3nc2-1.Cl` [Form I, topotecan hydrochloride] the “Stability at room temperature” value [1] was “substantially stable”, the Purity [1, 3] was 99.70% and the Purity [1, 4] was 99.65%. The Purity [1, 6] was 99.56% and the Purity [1, 7] was 99.56%.
